Assay results from PMC5454942, “The Potential of Triterpenoids from Loquat Leaves (Eriobotrya japonica) for Prevention and Treatment of Skin Disorder” (International Journal of Molecular Sciences, 2017).
Values after ≈ are worked out from the molar mass of the structure shown. Values joined by “and” are separate entries in the source; they are usually repeats but may differ in a detail not shown here. Equal entries are not always repeated. Where two headings read alike, the source gives them in different places.

How the values were obtained:
[1] = Cell viability of B16 melanoma cells (MTT); settings: mouse
Method: (§1) This assay was performed as described by Arung et al.. The mouse melanoma cell line B16 was obtained from the Riken Bioresource Center Cell Bank (Tsukuba, Japan). The B16 melanoma cells were maintained in Eagle’s Minimal Essential Medium (EMEM, Nissui Chemical, Tokyo) supplemented with 10% (v/v) fetal bovine serum (FBS; Gibco, Carlsbad, CA, USA) and 0.09 mg/mL theophylline (Sigma-Aldrich, St. Louis, MO, USA). […] After 24 h, test samples were dissolved in DMSO (<0.2% per well) and sample solution were added to each well. Arbutin (Tokyo Kasei Kogyo, Tokyo) was used as a positive control. The cells were incubated for an additional 48 h, and then the medium was replaced with fresh medium containing each sample again. After 24 h, the melanin content and the cell viability were measured using a microplate reader (BioTek-ELX800, BioTek Instruments, Winooski, VT, USA) at 405 nm and 570 nm, respectively. Cell viability was measured using the MTT (3-(4,5-dimethylthiazol-2-yl)-2,5-diphenyltetrazolium bromide) method.

B16 melanoma cells [2] = test: Cell viability of B16 melanoma cells (MTT); settings: for Inhibition rate (100% − cell viability): B16 cells
Method: as §1

[3] = Cell viability of RBL-2H3 cells (parallel MTT); type: cell-based, rat; settings: rat
Method: (§2) The anti-allergy assay was based mostly on the methods described by Zhu et al. and Yun et al. with slight modification. Rat basophilic leukemia (RBL-2H3) cells were obtained from the Riken Bio-resource Center Cell Bank (Tsukuba, Japan). RBL-2H3 cells were incubated in EMEM medium containing 10% FBS and 1% antibiotics–antimycotics at 37 °C. The cells were seeded on a 96-well plate (2 × 10^5 cells/well). After 24 h of incubation, the medium was supplemented with 0.5 μg/mL anti-DNP (dinitrophenol) mouse immunoglobulin E (IgE) (Sigma-Aldrich). After an additional 24 h of incubation, the medium was replaced with 100 μL of Tyrode buffer. The sample dissolved in DMSO (<0.5% per well) was added, and the cell plate was incubated again for 30 min, then replaced with 100 μL of tyrode buffer containing 50 μg/mL DNP-bovine serum albumin (BSA) (Invitrogen, Carlsbad, CA, USA). After 1 h of incubation, 50 μL of the supernatant was collected from each well and mixed with 50 μL of substrate solution (p-nitrophenyl-N-acetyl-β-glucosaminide, 2 mM; Sigma-Aldrich) in a new 96-well plate. The mixture was incubated at room temperature on a shaker for 3 h. Finally, 100 μL of stop solution was added, and the absorbance was read at 405 nm. A parallel MTT experiment was performed to measure the cell viability. The MTT experiment was done exactly as described.

RBL-2H3 cells [4] = test: β-hexosaminidase release from IgE-stimulated RBL-2H3 mast cells; type: cell-based, rat; settings: for IC50: IgE-stimulated RBL-2H3 cells, read-out: IC50 (β-hexosaminidase release)
Method: as §2

mushroom tyrosinase = test: Tyrosinase inhibition assay; type: biochemical; settings: for inhibitory effect on tyrosinase (in words): L-DOPA as substrate; for inhibitory activity on tyrosinase (in words): L-tyrosine as substrate, relatively high concentrations
Method: Tyrosinase inhibition activity was evaluated by using L-tyrosine and L-DOPA as substrates, as described. Briefly, 333 μL of 2.5 mM L-tyrosine or L-DOPA solution (Sigma-Aldrich) was mixed with 600 μL of 0.1 M phosphate buffer (pH 6.8) and incubated at 25 °C. Then, 33 μL of the sample solution (dissolved in DMSO in various concentrations) and 33 μL of 1380 units/mL mushroom tyrosinase (Sigma-Aldrich) were added to the mixture. The optical density was measured at 475 nm up to the appropriate time. Kojic acid (Sigma-Aldrich) was used as the positive control; the final concentration is 3.3 μg/mL.

B16 melanoma cells [5] = test: Anti-melanogenesis assay (melanin content); type: cell-based, mouse; settings: for inhibition at 1 µg/mL: 1 μg/ml; for inhibition at 10 µg/mL: 10 μg/ml
Method: as §1

Propionibacterium acnes = test: Anti-bacterial assay (growth inhibition, MIC/MBC by broth microdilution); type: cell-based; settings: for MBC / MIC: P. acnes, broth microdilution; for MBC: read-out: MBC; for inhibition at 100 µg/mL: read-out: Inhibition Rate (P. acnes growth); for activity against P. acnes (in words): at their maximum solubility
Method: The antibacterial assay was based mostly on the methods described by Tanaka et al. with slight modification. Propionibacterium acne (NBRC 107605) was used for the antibacterial assay. A single colony of the test strain was taken and 5 mL of Gifu anaerobic medium (GAM) broth (Nissui, Tokyo) was added to it. This culture was incubated at 37 °C for 30 h. It was then added to the bacterial suspension to prepare a bacterial concentration at 10^5 CFU/mL. The bacterial solution was used for the subsequent antibacterial assay. Each compound was dissolved in DMSO, and benzalkonium chloride (Wako) was used as a positive control. The plate was incubated at 37 °C for 30 h. Finally, bacterial growth was measured by a microplate reader at 630 nm. The MIC and MBC were evaluated by the standard broth microdilution method.

[6] = system: Epstein–Barr virus early antigen; set-up: method as in PMID 16204964, PMID 14745168; settings: cited from earlier work
NHDF cells = test: Skin type I collagen synthesis promoting assay (ELISA, with MTT); type: cell-based, human; settings: fold of control
Method: The assay for measuring the promotion of skin collagen synthesis was described by Kishikawa et al.. Adult NHDF cells (Lonza, Tokyo) were routinely maintained in 10% FBS and 1% antibiotic-antimycotic (Invitrogen) in Dulbecco’s modified Eagle’s medium (DMEM, Wako). After growing to confluence, cells at a density of 5 × 10^3 cells/well were seeded on 96-well plates for 24 h before the treatment. The medium was replaced with a mixture of 1 μL of sample solution (DMSO < 0.5% per well) and 99 μL of DMEM supplemented with 0.5% FBS. After 72 h of cultivation, the amount of collagen in the medium was measured using a human type I collagen enzyme-linked immunosorbent assay (ELISA) kit (ACEL, Kanagawa, Japan). The amount of collagen production was calculated using a standard curve prepared by measurement by the same ELISA. The cells remaining in the 96-well plate were subjected to an MTT assay. Ascorbic acid (100 μM, Wako) was used as a positive control.

RBL-2H3 cells [7] = test: Cell viability of RBL-2H3 cells (parallel MTT); type: cell-based, rat; settings: 25 μg/ml, RBL-2H3 cells
Method: as §2

[8] = system: inflammation induced by 12-O-tetradecanoylphorbol-13-acetate (TPA); set-up: method as in PMID 16204964, PMID 14745168; settings: mice; cited from earlier work
[9] = 25 μg/ml, RBL-2H3 cells, read-out: Cell viability
[10] = Rattus norvegicus, RBL-2H3, 25 μg/mL, read-out: Inhibition Rate (β-hexosaminidase release)
[11] = Mus musculus, B16 cells, read-out: Inhibition rate (100% − melanin synthesis)
[12] = Mus musculus, 2.5 μg/ml, B16 cells, read-out: Inhibition rate (100% − melanin synthesis)
[13] = Mus musculus, 5 μg/ml, B16 cells, read-out: Inhibition rate (100% − melanin synthesis)
[14] = Mus musculus, 20 μg/ml, B16 cells, read-out: Inhibition rate (100% − melanin synthesis)
[15] = Mus musculus, B16 melanoma cells, read-out: IC50 (melanin synthesis)
[16] = Mus musculus, B16 melanoma cells, read-out: IC50 melanin
[17] = Cutibacterium acnes, read-out: MIC
[18] = Cutibacterium acnes, concentration 100 μg/mL

Row | Compound | Inhibition rate (100% − cell viability) (B16 melanoma cells [2]; 1 μg/ml) | Inhibition rate (100% − cell viability) (B16 melanoma cells [2]; 2.5 μg/ml) | Inhibition rate (100% − cell viability) (B16 melanoma cells [2]; 5 μg/ml) | Inhibition rate (100% − cell viability) (B16 melanoma cells [2]; 10 μg/ml) | Inhibition rate (100% − cell viability) (B16 melanoma cells [2]; 20 μg/ml) | viability at 25 μg/ml [3, 9] | inhibition at 25 µg/mL (RBL-2H3 cells [4]; [10]) | inhibitory effect on tyrosinase (in words) (mushroom tyrosinase) | inhibitory activity on tyrosinase (in words) (mushroom tyrosinase) | S.I (selectivity index, CC50 value/IC50 value) (B16 melanoma cells [5]; B16 melanoma cells) | inhibition at 1 µg/mL (B16 melanoma cells [5]; [11]) | inhibition at 2.5 µg/mL (B16 melanoma cells [5]; [12]) | inhibition at 5 µg/mL (B16 melanoma cells [5]; [13]) | inhibition at 10 µg/mL (B16 melanoma cells [5]; [11]) | inhibition at 20 µg/mL (B16 melanoma cells [5]; [14]) | IC50 (B16 melanoma cells [5]; [15]) | IC50 (B16 melanoma cells [5]; [16]) | MBC (Propionibacterium acnes; Cutibacterium acnes) | MIC (Propionibacterium acnes; [17]) | inhibition at 100 µg/mL (Propionibacterium acnes; [18]) | further results
1 | CC1(C)CC[C@]2(C(=O)O)CC[C@]3(C)C(=CC[C@@H]4[C@@]5(C)CC[C@H](O)C(C)(C)[C@@H]5CC[C@]43C)[C@@H]2C1 [Compound 2, Oleanolic acid] | 4.9 ± 4.6% | 7.8 ± 4.1% | 17.0 ± 6.2% | 27.4 ± 7.0% | 54.9 ± 2.3% | 102 ± 6.2% | 5.8 ± 6.7% | no inhibitory effect | moderate inhibitory activity | 1.5 | 9.5 ± 4.6% | 27.8 ± 4.8% | 33.5 ± 6% | 45.9 ± 1.5% | 58.6 ± 2.3% | 26.8 µM | 12.2 µg/mL | 200 µg/mL (≈ 438 µM) | 100 µg/mL (≈ 219 µM) | 100.4 ± 0.8% | CC50 at 72 h ([1]; B16 melanoma cells): 18.2 µg/mL and 39.9 µM; activity against P. acnes (in words) (Propionibacterium acnes): active
2 | C=C(C)[C@@H]1CC[C@]2(C(=O)O)CC[C@]3(C)[C@H](CC[C@@H]4[C@@]5(C)CC[C@H](O)C(C)(C)[C@@H]5CC[C@]43C)[C@@H]12 [Compound 4, Betulinic acid] | 1.2 ± 12.0% | 20.8 ± 5.2% | 35.9 ± 5.2% | 58.4 ± 14.1% | 68.1 ± 11.4% | 97.9 ± 10.6% | 29.4 ± 8.1% | no inhibitory effect | moderate inhibitory activity | 1.4 | 35.4 ± 0.5% | 44.8 ± 1.4% | 49.7 ± 3.1% | 54 ± 3.3% |  | 11.8 µM | 5.3 µg/mL |  |  | < 0% | CC50 at 72 h [1]: 7.6 µg/mL and 16.7 µM; inhibition at 0.5 µg/mL (B16 melanoma cells [5]; Mus musculus, 0.5 μg/ml, B16 cells, read-out: Inhibition rate (100% − melanin synthesis)): 23.2 ± 1.4%
3 | C[C@H]1[C@H](C)CC[C@]2(C(=O)O)CC[C@]3(C)C(=CC[C@@H]4[C@@]5(C)C[C@@H](O)[C@@H](O)C(C)(C)[C@@H]5CC[C@]43C)[C@H]12 [Compound 9, 3-epicorosolic acid] |  | 0.0 ± 10.3% | 0.0 ± 11.8% | 3.4 ± 4.1% | 14.8 ± 4.1% |  |  |  |  |  |  |  |  |  |  |  |  |  |  |  | CC50 cell viability (B16 melanoma cells [2]; B16 melanoma cells, MTT): > 20.0 µg/mL; CC50 (B16 melanoma cells [2]; read-out: CC50 (cell viability), B16 melanoma cells, MTT): > 42.3 µM; inhibitory activity against TPA-induced Epstein–Barr virus early antigen activation (in words) [6]: significant inhibitory activity; CP/CV value (collagen production %/cell viability %) (NHDF cells; 1 μg/mL): 1.2; CP/CV value (collagen production %/cell viability %) (NHDF cells; 5 μg/mL): 1.3; Cell viability (RBL-2H3 cells [7]): 98.0 ± 7.7%; Inhibition Rate (β-hexosaminidase release) (RBL-2H3 cells [4]; 1 μg/mL): 8.9 ± 5.2%; Inhibition Rate (β-hexosaminidase release) (RBL-2H3 cells [4]; 5 μg/mL): 33.7 ± 6.9%; Inhibition Rate (β-hexosaminidase release) (RBL-2H3 cells [4]; 12.5 μg/mL): 50.7 ± 3.2 %; Inhibition Rate (β-hexosaminidase release) (RBL-2H3 cells [4]; 25 μg/mL): 54.4 ± 4.9 %; IC50 (RBL-2H3 cells [4]): 14.2 µM; inhibitory activity against TPA-induced inflammation (in words) [8]: significant inhibitory activity; Inhibition rate (100% − melanin synthesis) (B16 melanoma cells [5]; 2.5 μg/ml, B16 cells): 1.0 ± 5.4%; Inhibition rate (100% − melanin synthesis) (B16 melanoma cells [5]; 5 μg/ml, B16 cells): 0.0 ± 5.3%; Inhibition rate (100% − melanin synthesis) (B16 melanoma cells [5]; 20 μg/ml, B16 cells): 7.8± 0.9%; IC50 melanin (B16 melanoma cells [5]; B16 melanoma cells): > 20.0 µg/mL; IC50 (B16 melanoma cells [5]; B16 melanoma cells, read-out: IC50 (melanin synthesis)): > 42.3 µM; Inhibition Rate (P. acnes growth) (Propionibacterium acnes; concentration 100 μg/mL): – (no inhibition)
4 | C[C@@H]1CC[C@]2(C(=O)O)CC[C@]3(C)C(=CC[C@@H]4[C@@]5(C)C[C@@H](O)[C@@H](O)C(C)(C)[C@@H]5CC[C@]43C)[C@@H]2[C@]1(C)O [Compound 12, euscaphic acid] |  | 0.0 ± 6.9% | 0.0 ± 6.6% | 44.9 ± 2.7% | 91.1 ± 1.0% |  | 74.5 ± 1.3% |  |  | 0.7 |  | 0% | 0% | 35 ± 3.6% | 58.8% | 34 µM | 16.6 µg/mL | 50 µg/mL (≈ 102 µM) | 50 µg/mL (≈ 102 µM) | 98.5 ± 1.3% | CC50 at 72 h [1]: 12.5 µg/mL and 25.6 µM; inhibitory activity against TPA-induced Epstein–Barr virus early antigen activation (in words) [6]: significant inhibitory activity; viability at 25 μg/ml [3]: 93.9 ± 7.3%; inhibition at 1 µg/mL (RBL-2H3 cells [4]; Rattus norvegicus, RBL-2H3, 1 μg/mL, read-out: Inhibition Rate (β-hexosaminidase release)): 10.4 ± 10.8%; inhibition at 5 µg/mL (RBL-2H3 cells [4]; Rattus norvegicus, RBL-2H3, 5 μg/mL, read-out: Inhibition Rate (β-hexosaminidase release)): 37.7 ± 3.9%; inhibition at 12.5 µg/mL (RBL-2H3 cells [4]; Rattus norvegicus, RBL-2H3, 12.5 μg/mL, read-out: Inhibition Rate (β-hexosaminidase release)): 67 ± 1.8%; IC50 (RBL-2H3 cells [4]; Rattus norvegicus): 15.8 µM; inhibitory activity against TPA-induced inflammation (in words) [8]: significant inhibitory activity; MIC (Propionibacterium acnes): 50/50 μg/mL; activity against P. acnes (in words) (Propionibacterium acnes): active
